According to US10450322B2, “Low molecular weight derivatives of carboxamide halogenated porphyrins, namely chlorins and bacteriochlorins, and their applications thereof” (LUZITIN, S.A., priority 2015, dated 2019):

Assays:
[1] = Triplet-triplet transient absorption / photoacoustic calorimetry; format: physicochemical
Description: The triplet-triplet transient absorption was recorded in an Applied Photophysics LKS.60 laser flash photolysis spectrometer, with a Hewlett-Packard Infinium Oscilloscope and a Spectra-Physics Quanta-Ray GCR-130 Nd:YAG laser as excitation source. The pulse excitation was set at 355 nm.
The thermal energy released after electronic excitation was measured by time-resolved photoacoustic calorimetry using a front-face irradiation photoacoustic cell and a EKSPLA OPO model PG-122 pumped by an EKSPLA Nd:YAG. The signal detection was made using a 2.25 MHz Panametrics transducer. The excitation was at 690 nm and azulene was used as photoacoustic calorimetry reference.
(§1) This is indicative of negligible aggregation between the molecules, which exist mostly as monomers at these concentrations in the solvents studied. Table 1 presents the infrared molar absorption coefficient (εmax) and wavelength maximum in ethanol of a typical carboxamide halogenated bacteriochlorin derivative of Formula (I). The same table also presents triplet lifetimes (τT) in air and N2 saturated solutions, fluorescence lifetime (τS), the quantum yields of fluorescence (ΦF), triplet state formation (ΦT), and singlet oxygen generation (ΦΔ) in ethanol, and photodegradation quantum yield (Φpd) in methanol:PBS (3:2). Triplet decays were clearly mono-exponential and in air-saturated ethanol the triplet lifetimes were in the range of 200 to 300 nanoseconds. Such values are consistent with diffusion limited energy transfer from the triplet state of the photosensitizer to molecular oxygen through a charge-transfer interaction (8). The absorption intensity of the test compounds in the photobleaching studies followed a mono-exponential decrease as a function of the illumination time.

[2] = Singlet oxygen quantum yield (phosphorescence at 1270 nm); format: physicochemical; conditions: in ethanol
From the text: The experiments were run at room temperature using the Nd-YAG laser Spectra-Physics Quanta-Ray GRC-130. The solutions were excited at 355 nm and the phosphorescence of singlet oxygen collected at 1270 nm in a Hamamatsu R5509-42 photomultiplier, cooled to 193 K in a liquid nitrogen chamber, after selection of the wavelength with a monochromator with 600 lines grading. Phenalenone was used as a reference of singlet oxygen generator. A Newport filter model 10LWF-1000-B was used in the emission to avoid scattering and fluorescence.
as §1, with “Such values are consistent with diffusion limited energy transfer from the triplet state of the photosensitizer to molecular oxygen through a charge-transfer interaction (8). The absorption intensity of the test compounds in the photobleaching studies followed a mono-exponential decrease as a function of the illumination time.” left out

[3] = n-Octanol:PBS partition ratio (shake-flask); format: physicochemical
From the text: a modification of the shake-flask method was employed to determine the equilibrium concentrations of the photosensitizer in n-octanol and in phosphate-buffered saline (PBS) mixed in equal volumes, using the typical fluorescence band of the same photosensitizer and calibration curves.
This example describes the evaluation of in vitro phototoxicity of a carboxamide bacteriochlorin with formula IX after light irradiation, and their potential for PDT application in the treatment of acne vulgaris. The phototoxicity was measured according to the description in the Materials and Methods section. The n-octanol:PBS partition ratio of IX is POW=2.9±0.5. An adequate formulation for this carboxamide bacteriochlorin is PEG400:DMSO (55:45). The phototoxicity of the test compound is proportional to the inhibition of P. acnes viability relative to the non-treated control, and is represented in FIG. 5 in the form of CFU reduction as a function of photosensitizer concentration for the light doses of 4 and 10 J/cm^2.

[4] = system: A549 (human lung adenocarcinoma) cell line; test: In vitro phototoxicity / dark toxicity towards A549 cells; format: cell-based
Description: Phototoxicity towards cancer cell lines was evaluated in vitro using A549 (human lung adenocarcinoma) and CT26 (mouse colon adenocarcinoma) cell lines. The cells were cultured in Dulbecco's modified Eagles's medium (DMEM) supplemented with 10% heat-inactivated fetal bovine serum and 1% penicillin. Cells were plated at a density of 20,000/well and 15,000/well respectively, in flat-bottom 96-well plates. On the following day, diluted solutions of the test compound were prepared (1 mM stock) and added to the cells for 30-min incubation. […] The wells were washed two times with PBS and irradiated after 30-min of incubation using the LED light described above. Light dose was 1 J/cm^2. The medium was replaced with fresh one after irradiation and the plates were incubated for 24 h, at which time the cellular viability was assessed by resazurin method using a microplate spectrophotometer (Synergy HT Biotek).
This example describes the evaluation of in vitro phototoxicity of a carboxamide bacteriochlorin with formula IX after light irradiation, and their potential for PDT of cancer. The formulation employed was the same as that of Example 4. […] The phototoxicity was measured according to the description in the Materials and Methods section. The phototoxicity of the test compound was assessed in terms of the percentage of survival of the cells for various concentrations of the test compound incubated for 30 min, followed by washings with PBS, addition of the culture medium and illumination with a light dose of 1 J/cm^2.

CT26 subcutaneous tumors = test: In vivo antitumor PDT of CT26 subcutaneous tumors in BALB/c mice; conditions: 15 min drug-to-light interval

For `CNC(=O)c1c2nc(c(-c3c(F)cccc3F)c3ccc(cc4nc(c(-c5c(F)cccc5F)c5ccc1[nH]5)CC4)[nH]3)CC2` [formula IX, 5-methylcarboxamide-10,20-bis-(2,6-difluorophenyl)bacteriochlorin], which “τT (N2) triplet lifetime” value ([1]; N2-saturated ethanol) is on record?
Its value is 71 ± 5 μs.

And the “τT (air) triplet lifetime” value ([1]; air-saturated ethanol)?
Its value is 210 ns.

And the “ΦT triplet state formation quantum yield” value ([1]; in ethanol)?
The value was 0.45.

And the “ΦΔ singlet oxygen quantum yield” value [2]?
The value was 0.38.

What about the “Log POW” value [3] of the same compound?
Its value is 2.9.

And the “n-octanol:PBS partition ratio POW” value [3]?
Its value is 2.9±0.5.

And the IC50 ([4]; 30 min incubation, irradiated with 1 J/cm^2)?
The IC50 was 2.5 nM.

What about the “photosensitizer concentration at which nearly all cells are killed” value ([4]; A549, 30 min incubation, 1 J/cm^2 (FIG. 6)) of the same compound?
Its value is 50 nM.

What about the “concentration with no signs of toxicity in the dark” value ([4]; A549, incubation in the dark for 30 min) of the same compound?
The value was “up to 40 μM”.

What about the cure (CT26 subcutaneous tumors; 0.15 mg/kg i.v., 40 J/cm^2) of the same compound?
The cure was 100%.

And the “tolerability of PDT” value (CT26 subcutaneous tumors; 0.15 mg/kg i.v., 40 J/cm^2)?
Its value is “very well tolerated”.

What about the tumor response (CT26 subcutaneous tumors; 0.15 mg/kg i.v., 40 J/cm^2) of the same compound?
Its tumor response is “complete regression”.

And the “time post-PDT by which animals died of acute response to the treatment” value (CT26 subcutaneous tumors; 0.3 mg/kg i.v., 40 J/cm^2 at 749 nm)?
Its value is “less than 72 h”.
